The test addresses E3 ubiquitin-protein ligase Mdm2 (Homo sapiens, UniProt Q00987). The test is described as follows: Binding affinity to human MDM2 assessed as dissociation constant.

Structures are written as SMILES.

Chain of E3 ubiquitin-protein ligase Mdm2 (Q00987 whole entry): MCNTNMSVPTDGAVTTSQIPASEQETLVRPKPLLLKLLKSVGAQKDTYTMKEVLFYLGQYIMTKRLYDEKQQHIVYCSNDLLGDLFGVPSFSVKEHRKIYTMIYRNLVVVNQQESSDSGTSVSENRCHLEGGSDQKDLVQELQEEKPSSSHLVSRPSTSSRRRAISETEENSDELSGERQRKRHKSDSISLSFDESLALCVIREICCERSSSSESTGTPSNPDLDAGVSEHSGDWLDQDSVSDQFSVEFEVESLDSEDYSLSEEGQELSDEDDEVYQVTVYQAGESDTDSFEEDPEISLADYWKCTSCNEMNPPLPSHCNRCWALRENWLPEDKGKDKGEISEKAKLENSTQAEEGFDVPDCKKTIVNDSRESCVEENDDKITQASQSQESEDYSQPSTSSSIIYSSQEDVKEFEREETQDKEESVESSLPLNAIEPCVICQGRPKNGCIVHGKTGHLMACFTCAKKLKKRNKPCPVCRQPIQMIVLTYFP

As usually defined, the Ki is the equilibrium dissociation constant of an inhibitor or competing ligand from its target. As for `O=C(CN(Cc1ccc(Cl)cc1)C(=O)c1cc2ccccc2[nH]1)NC1CCCCC1`, the inhibitory constant (Ki) was determined as 54 µM.

The record behind these values is BindingDB's records for PubMed 34286973 (University of Chinese Academy of Sciences, 2021).
